From patent US20250082630A1, “METHODS OF TREATING BRAIN TUMOURS AND NEUROBLASTOMAS” (AstraZeneca AB, priority 2021, published 2025)

How the values were obtained:
Assay type in all cases: cell-based
[1] = system: PARylation in BT245 H3K27M paediatric glioma model; test: PARylation inhibition in paediatric glioma model
DLD1 cells = test: PARP proliferation assay (7 day compound dosing), WT DLD1; details: Homo sapiens, DLD-1, 168 h, read-out: WT DLD-1 prolif. 7 d IC50
Procedure: DLD1 and BRCA2 (−/−) DLD1 cells were harvested to a density of 5000 cells/ml and 2.5E4 cells/ml respectively in complete media, 40 μL/well seeded into 384-well plates (Greiner, Kremsmunster, Austria; 781090) using a Multidrop Combi then incubated at 37° C., 5% CO2 overnight. Next day (Day 1) using a Multidrop Combi add sytox green (5ul, 2 uM) and saponin (10 ul, 0.25% stock) to a day 0 plate, seal the plate using a black adhesive lid and incubate for >3 h at it. Cells were imaged using Cell Insight (Thermo Fisher) fitted with a 4x objective. Test compounds are added using an Echo 555 and placed in incubator maintained at 37° C., 5% CO2 and incubated for 7 days. On Day 8 add sytox green (5ul, 2 uM) and then saponin (10 ul, 0.25% stock) to plates, seal the plate using a black adhesive lid and incubate for >3 h at it. Read all cells on the Cell Insight with 4× Objective. The rate of proliferation is determined in Genedata by assessing the total cell number output from the Cell Insight for Day 0 and Day 8 plates.

[2] = system: U87 IDH1 wt and IDH1 mt isogenic pairs; test: Combination assay PARP inhibitor with VAL-083, U87 isogenic pairs
Procedure: (§1) To evaluate the activity and potency of the PARP inhibitors described herein in combination with the standard of care chemotherapy Temozolamide (TMZ), ionizing radiation (IR) and the emerging chemotherapy VAL-083, U87, SJG2 and BT245 glioblastoma cells were assayed. Parental U87 cell lines were obtained from the AstraZeneca Global Cell Bank in Alderley Park, UK and the isocistrate dehydrogenase 1 mutant cell line (IDH1 mt R1 32H) was licensed in from ATCC. The SJ-G2 (ATRX mutant) and BT245 (H3K27M mutant) cell lines were obtained from The Research Institute of the McGill University Health Centre, Montreal, QC H4A 3J1, Canada. IDH1R132 mutation was induced in SJG2 cell line to generated isogenic pair (SJG2 IDH1mt and SJG2 IDH1 wt). […]
(§2) For the nuclear count end point assay, cells were fixed for ˜15 minutes (min) by the addition of 50 μl per well of Formaldehyde (Sigma-Aldrich F8775). […] The images were acquired using CellInsight CX5 (Thermo Fisher) and analysed by measuring the total number of hoechst stained nuclei. The number of nuclei (% confluence) of the drug treated wells were normalised to the DMSO control and the growth inhibition was calculated using the combenefit software (Di Veroli et al., 2016).

SJ-G2 IDH1wt ATRXmt = test: Monotherapy treatment, SJ-G2 IDH1wt ATRXmt
Procedure: DMSO served as a vehicle control.
The plates were washed again and PBS was added.

U87 IDH1wt ATRXwt = test: Monotherapy treatment, U87 IDH1wt ATRXwt; details: read-out: Compound 20 IC50
Procedure: as §1, §2

[3] = system: SJ-G2 IDH1 wt and IDH1mt isogenic pairs; test: Combination assay PARP inhibitor with VAL-083, SJ-G2 isogenic pairs
Procedure: as §1, §2

[4] = system: BT245 H3K27M paediatric glioma cells; test: Combination assay PARP inhibitor with ionizing radiation (colony formation); details: 0.9 Gy, multiple doses of the inhibitor
Procedure: DMSO served as a vehicle control. […] Next, cells were fixed and stained using the Sulforhodamin B acid form (SRB) [Sigma, 341738-5g] reconstituted in 1% Acetic Acid as the stain is added straight after fixation without any washing step which limits cell detachment. Plates with stained colonies were scanned with the GelCount colony counter (Oxford OPTRONIX) at 600 dpi resolution. Colony formation was scored by quantifying the total optical density measured with ImageJ software, using a 24-well plate Region of Interest (ROI) mask (CFU, colony formation units). Data analysis was performed by normalisation on the vehicle treated of the respective plate set as =100. […] In the represented plots error bars are mean±SD.

`CNC(=O)c1ccc(N2CCN(Cc3ccc4nc(C)c(=O)[nH]c4c3F)CC2)c(F)n1` [Example 20, 6-fluoro-5-[4-[(5-fluoro-2-methyl-3-oxo-4H-quinoxalin-6-yl)methyl]piperazin-1-yl]-N-methyl-pyridine-2-carboxamide] was tested, and the “IC95 for PARylation inhibition” value [1] was 4 nM, the IC50 (DLD1 cells) was over 30 µM and the “combination effect with VAL-083” value [2] was “synergises with VAL-083”. For the same compound, the IC50 (SJ-G2 IDH1wt ATRXmt; SJ-G2, read-out: Compound 20 IC50) was 2340 nM, the “higher sensitivity compared to the ATRXwt U87 model” value (SJ-G2 IDH1wt ATRXmt; SJ-G2 ATRXmt model, monotherapy) was “about 40 fold” and the IC50 (U87 IDH1wt ATRXwt) was over 100 µM. The “activity in the absence of VAL-083” value ([3]; 1 μM Compound 20, ATRX mutant cell lines) was “has activity”, the “combination effect with VAL-083” value ([3]; SJ-G2 IDH1 wt and IDH1mt, ATRX mutant) was “enhanced combination benefit” and the “combination effect with ionizing radiation” value [4] was “enhanced combination benefit”.
